Assay results from publication PMC6373163, “Potential in vitro anti-allergic, anti-inflammatory and cytotoxic activities of ethanolic extract of Baliospermum montanum root, its major components and a validated HPLC method” (BMC Complementary and Alternative Medicine, 2019).
Values after ≈ are worked out from the molar mass of the structure shown.

Assays:
[1] = Cytotoxic activity by sulforhodamine B (SRB) assay, normal cells HaCaT; assay type: cell-based; details: human, 72 h exposure, 72 h recovery
Method: (§1) The crude extracts and isolated compounds were evaluated for cytotoxic activity by using sulforhodamine B (SRB) assay against two cancerous liver cells (HepG2 and KKU-M156) and a normal cells (HaCaT). The SRB protocol has been described previously. HepG2 was cultured in MEM; KKU-M156 was cultured in HAM F-12 media and HaCaT was cultured in DMEM. All cultured media were supplemented with 10% FBS, penicillin/streptomycin (each 100 units/mL). All cells were incubated in 5% CO2 at 37 °C with 95% humidity. Based on the growth curve, each cell was seeded into 96-well plate (100 μL per well) with optimal density (HepG2: 3 × 10^3 cells per well, KKU-M156: 2 × 10^3 cells per well and HaCaT: 8 × 10^3 cells per well). Seeded cells were incubated at 37 °C in a 5% CO2 with 95% humidity for 24 h. Cells were then treated with 100 μL of different concentrations of sample solution (0.1 μg/mL, 1 μg/mL, 10 μg/mL and 50 μg/mL). DMSO at the same concentration as the sample (2% v/v) was used as the control solvent. Cell cultures were incubated for the exposure time of 72 h. After the exposure time, the medium was removed and the plate was washed with 200 μL phosphate buffer saline (PBS) and 200 μL fresh medium was added into each well. The plates were then incubated for 72 h for the recovery period. The cells were then fixed by adding 100 μL of 40% trichloroacetic acid and the plates left at 4 °C for 45 min. After the plates were washed, 50 μL of SRB solution (0.4% w/v in acetic acid) was added into each well and the cells were allowed to be strained for 30 min. The stained cells were dissolved by using 100 μL of 10 mM Tris base pH 10.5. The %inhibition was calculated using the following equation. Inhibition%=ODcontrol‐ODsample/ODcontrol×100

HepG2 = assay: Cytotoxic activity by sulforhodamine B (SRB) assay, HepG2; assay type: cell-based; details: for Selective index: HaCaT versus HepG2; for IC50: Homo sapiens, HepG2, SRB, 72 h exposure, 72 h recovery
Method: as §1

KKU-M156 = assay: Cytotoxic activity by sulforhodamine B (SRB) assay, KKU-M156; assay type: cell-based; details: for Selective index: HaCaT versus KKU-M156; for IC50: KKU-M156, SRB, 72 h exposure, 72 h recovery
Method: as §1

[2] = system: β-hexosaminidase released from RBL-2H3 cells; assay: Inhibition of β-hexosaminidase release from IgE-sensitized, DNP-BSA-stimulated RBL-2H3 cells (anti-allergic activity); assay type: cell-based, rat; details: for inhibition at 0.1 µg/mL / inhibition at 1 µg/mL / inhibition at 10 µg/mL / inhibition at 50 µg/mL / IC50: Rattus norvegicus, mean ± SD, triplicate; for inhibition at 0.1 µg/mL: 0.1 μg/ml; for inhibition at 1 µg/mL: 1 μg/ml; for inhibition at 10 µg/mL: 10 μg/ml; for inhibition at 50 µg/mL: 50 μg/ml
Method: Inhibitory activity on β-hexosaminidase released from rat basophilic leukemia cells (RBL-2H3) was evaluated following the report of Juckmetha and co-workers. RBL-2H3 cells were cultured in MEM supplemented with 15% FBS, penicillin/streptomycin (each 100 μg/mL). Cells were seeded in 24-well plate with the concentration of 5 × 10^5 cells/well and incubated in 5% CO2 at 37 °C for 1.5 h. RBL-2H3 were sensitized with 0.45 μg/mL of Anti-DNP IgE and incubated at 37 °C in 5% CO2 for 24 h. Cells were then washed with 400 μL of Siraganian buffer (Buffer A) [119 mM NaCl, 5 mM KCl, 5.6 mM glucose, 0.4 mM MgCl2, 1 mM CaCl2, 25 mM piperazine-N,N′-bis (2-ethanesulfonic acid) (PIPES), 0.1% BSA, and 40 mM NaOH, pH 7.2]. Subsequently, 160 μL of buffer A was added into the wells and incubated at 37 °C for 10 min. The stock solution of the sample was diluted in DMSO and the working samples were diluted with buffer A. The concentrations of the working samples were 0.1 μg/mL, 1 μg/mL, 10 μg/mL and 50 μg/mL. The serially diluted samples (20 μL) were added to each well and incubated for 10 min. The reaction of antigen-antibody was obtained by adding 20 μL of antigen (DNP-BSA) to produce a final concentration of 10 μg/mL and incubated at 37 °C for 20 min. The amount of β-hexosaminidase released from the degranulation was determined by adding 50 μL of the substrate, PNAG (1 mM in 0.1 M citrate buffer, pH 4.5). The enzyme reaction was stopped by adding 200 μL of 0.1 M carbonate buffer pH 10.0. The product of enzyme reaction, p-nitrophenol, was analyzed by measuring absorbance at wavelength 405 nm. Chlorpheniramine was used as positive control. The percentage of inhibition was calculated by the following equation. Inhibition%=1−T−B−N/C−B−N×100
Where • C = Optical density of control: [+] DNP-BSA, [−] Test sample; • T = Optical density of test sample: [+] DNP-BSA, [+] Test sample; • B = Optical density of blank: […], [+] Test sample; • N = Optical density of normal: [−] DNP-BSA, [−] Test sample.

[3] = system: NO production of LPS-induced RAW 264.7 cells; assay: Inhibition of NO production in LPS-induced RAW 264.7 cells (Griess reagent); assay type: cell-based, murine; details: Mus musculus; for inhibition at 0.1 µg/mL: RAW264.7, 0.1 μg/mL; for inhibition at 0.1 µg/mL / inhibition at 1 µg/mL / inhibition at 10 µg/mL / inhibition at 50 µg/mL: mean ± SD, read-out: %Inhibition of LPS-induced nitric oxide release; for inhibition at 1 µg/mL: RAW264.7, 1 μg/mL; for inhibition at 10 µg/mL: RAW264.7, 10 μg/mL; for inhibition at 50 µg/mL: RAW264.7, 50 μg/mL; for IC50: RAW264.7, mean ± SD, triplicate, read-out: IC50, LPS-induced nitric oxide release
Method: The inhibitory activity of crude extracts and isolated compounds on NO production of LPS-induced RAW 264.7 cells was investigated according to a previously reported method. RAW 264.7 cells were cultured in RPMI medium supplemented with 10% FBS, penicillin/streptomycin (each 100 units/mL) and incubated at 37 °C in 5% CO2 with 95% humidity. The cells were seeded into 96-well plate (1 × 10^5 cells per well) and incubated for 24 h. Subsequently, the cells were induced by LPS at the final concentration of 2 ng/mL and the serially diluted samples (0.1 μg/mL, 1 μg/mL, 10 μg/mL and 50 μg/mL) were added. The plate was incubated for 24 h before being tested for NO accumulation and cell viability. Prednisolone was used as positive control. The accumulated NO released from the LPS-induced RAW 264.7 cells was determined by using Griess’s reagent (1% sulfanilamide and 0.1% N-(1- naphthyl) ethylenediamine dihydrochloride in 2.5% phosphoric acid). The supernatant in each well (100 μL) was transferred to another 96-well plate and 100 μL of Griess’s reagent was added. The optical density of reaction was measured at 570 nm. The inhibitory activity (%) of NO production was calculated by the following equation and the IC50 values were calculated. Inhibition%=ODcontrol‐ODsample/ODcontrol×100

[4] = Viability of LPS-treated RAW 264.7 cells (MTT); assay type: cell-based, murine; details: mouse
Method: The viability of the LPS treated RAW 264.7 cells were colorimetrically determined by using 3-(4, 5-dimethyl-2-thiazolyl)-2, 5-diphenyl-2H-tetrazolium bromide (MTT) method. MTT solution (10 μL) was added into each well and the plate was incubated for 2 h. The remained formazan crystal in each well, after removing the medium, was dissolved by 0.04 M HCl in isopropanol (100 μL). The optical density was measured by using microplate reader at wavelength 570 nm.

[5] = system: NO production of LPS-induced RAW 264.7 cells; assay: Inhibition of NO production in LPS-induced RAW 264.7 cells (Griess reagent); assay type: cell-based, murine; details: Mus musculus, RAW264.7, 0.01 μg/mL, mean ± SD, read-out: %Inhibition of LPS-induced nitric oxide release
[6] = system: β-hexosaminidase released from RBL-2H3 cells; assay: Inhibition of β-hexosaminidase release from IgE-sensitized, DNP-BSA-stimulated RBL-2H3 cells (anti-allergic activity); assay type: cell-based; details: Rattus norvegicus, 100 μg/ml, mean ± SD, triplicate

SMILES	IC50 at 72 h [1] [µg/mL]	Selective index (HepG2)	IC50 (HepG2) [µg/mL]	Selective index (KKU-M156)	IC50 (KKU-M156) [µg/mL]	inhibition at 0.1 µg/mL [2] [%]	inhibition at 1 µg/mL [2] [%]	inhibition at 10 µg/mL [2] [%]	inhibition at 50 µg/mL [2] [%]	IC50 [2] [µg/mL]	inhibition at 0.1 µg/mL [3] [%]	inhibition at 1 µg/mL [3] [%]	inhibition at 10 µg/mL [3] [%]	inhibition at 50 µg/mL [3] [%]	IC50 [3] [µg/mL]	viability at 0.1 μg/mL [4] [%]	viability at 1 μg/mL [4] [%]	viability at 10 μg/mL [4] [%]	viability at 50 μg/mL [4] [%]	also measured
CC[C@]1(O)C[C@H]2CN(CCc3c([nH]c4ccccc34)[C@@](C(=O)OC)(c3cc4c(cc3OC)N(C=O)[C@H]3[C@@](O)(C(=O)OC)[C@H](OC(C)=O)[C@]5(CC)C=CCN6CC[C@]43[C@@H]65)C2)C1 [Vincristine, reference compound]	< 0.0001	< 0.008	0.013 ± 0.0006 (≈ 0.0158 µM)	< 0.033	0.003 ± 0.0015 (≈ 0.00364 µM)															
CCC(=O)c1cc(OC)c(OC)c(OC)c1 [Compound 2, 1-(3′,4′,5′-trimethoxyphenyl) propan-1-one]	> 100	> 2.10	47.6 ± 1.2 (≈ 212 µM)	> 1.04	95.65 ± 0.48 (≈ 427 µM)	-5.37 ± 2.3	15.1 ± 1.71	30.4 ± 6.7	75.2 ± 6.47	26.2 ± 6.06	7.09 ± 6.86	11.1 ± 9.89	8.69 ± 6.93	58.8 ± 3.59	33.6 ± 5.25 (≈ 150 µM)	94.5	88.8	80.8	90.4	
CCC(=O)c1cc(OC)c(OC)cc1O [Compound 3, 1-(2′-hydroxy-4′, 5′-dimethoxyphenyl) propan-1-one]	> 100	> 1.11	90.3 ± 5.65 (≈ 430 µM)	> 1.20	83.4 ± 5.2 (≈ 397 µM)	-14.2 ± 5.67	8.52 ± 2.93	17.4 ± 5.72	60.8 ± 8.98	44.4 ± 7.33	-0.82 ± 3.26	2.64 ± 0.31	14.6 ± 3.43	34.4 ± 3.07	> 50	102	97	97.3	91.6	anti-allergic activity (in words) ([2]; judged from IC50): moderate activity
C[C@]12C=CC(=O)C=C1CC[C@@H]1[C@@H]2[C@@H](O)C[C@@]2(C)[C@H]1CC[C@]2(O)C(=O)CO [Prednisolone, reference compound]											47.7 ± 6.24	69.9 ± 3.76	77.9 ± 8.12		0.11 ± 0.02 (≈ 0.305 µM)	84.3	89.5	80.8		inhibition at 0.01 µg/mL [5]: 19.8 ± 3.43%; viability at 0.01 μg/mL ([4]; 0.01 μg/mL): 100%
CN(C)CCC(c1ccc(Cl)cc1)c1ccccn1 (centres unmarked) [Chlorpheniramine, reference compound]							14.9 ± 1.57	36.2 ± 2.84	71.4 ± 11	17.7 ± 1.61										inhibition at 100 µg/mL [6]: 81.3 ± 9.51%
CCC(=O)c1ccc(OC)c(OC)c1 [Compound 1, 1-(3′,4′-dimethoxyphenyl) propan-1-one]	> 100	> 1.15	87.1 ± 1.36 (≈ 448 µM)	> 1.71	58.3 ± 5.95 (≈ 300 µM)	-7.88 ± 3.01	4.84 ± 3.46	29.4 ± 2.01	77.7 ± 3.6	21.2 ± 2.01	2.66 ± 0.23	3.91 ± 3.03	14.4 ± 1.71	69.2 ± 2.49	40.4 ± 1.32 (≈ 208 µM)	84.7	89.7	84.7	80.5	
